# According to US11382912B2, “Controlled-release preparation” (NIPPON SHINYAKU CO., LTD., priority 2017, dated 2022):
# Molecular target: PGI2 receptor (Homo sapiens, UniProt P43119)
# Assay: not given
# Details: known, PTL 7 to PTL 12; cited from earlier work
# Chain of PGI2 receptor (P43119 whole entry, species assumed): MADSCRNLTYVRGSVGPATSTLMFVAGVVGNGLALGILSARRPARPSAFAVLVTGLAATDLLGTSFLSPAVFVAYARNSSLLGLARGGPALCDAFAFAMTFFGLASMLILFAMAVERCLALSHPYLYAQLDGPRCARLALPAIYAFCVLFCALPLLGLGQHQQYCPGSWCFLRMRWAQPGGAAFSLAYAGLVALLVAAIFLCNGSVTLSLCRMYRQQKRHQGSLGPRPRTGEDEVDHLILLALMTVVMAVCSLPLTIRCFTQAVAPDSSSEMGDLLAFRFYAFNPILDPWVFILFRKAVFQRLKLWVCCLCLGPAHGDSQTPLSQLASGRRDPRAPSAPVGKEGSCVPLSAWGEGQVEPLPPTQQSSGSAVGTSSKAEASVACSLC
row,Compound,PGI2 receptor agonistic effect
1,"CC(C)N(CCCCOCC(=O)NS(C)(=O)=O)c1cnc(-c2ccccc2)c(-c2ccccc2)n1 [Compound A, 2-{4-[N-(5,6-diphenylpyrazin-2-yl)-N-isopropylamino]butyloxy}-N-(methylsulfonyl)acetamide]",excellent

# System: not listed separately
# Assay: pH of alkaline substance at 0.1 wt % in water
# Format: physicochemical
# Details: dissolved or dispersed in water at 0.1 wt %
# Method: The pH of the alkaline substance was measured according to the following method.
# The alkaline substance was dissolved (or dispersed) in water at 0.1 wt %, and the pH of the solution (or the dispersion) was determined using a pH METER HM-30R (manufactured by DKK-TOA Corporation).
row,Compound,pH
1,O=P([O-])([O-])O.[Na+].[Na+] [Sodium hydrogen phosphate],9.2
2,O=C([O-])[O-].[Na+].[Na+] [Dried sodium carbonate],11.0
3,CC(=O)[O-].[Na+] [Sodium acetate],7.6
4,O=C([O-])[O-].[K+].[K+] [Potassium carbonate],10.9
5,O=C([O-])CC(O)(CC(=O)[O-])C(=O)[O-].[Na+].[Na+].[Na+] [Trisodium citrate],8.3
6,[Mg+2].[OH-].[OH-] [Magnesium hydroxide],10.3
7,CNC[C@H](O)[C@@H](O)[C@H](O)[C@H](O)CO [Meglumine],10.6
8,[O]=[Mg] [Magnesium oxide],10.7
9,[Ca+2].[OH-].[OH-] [Calcium hydroxide],12.2
10,O=C([O-])[O-].[Ca+2] [Calcium carbonate],9.8
11,O=C([O-])O.[Na+] [Sodium bicarbonate],8.5

# System: not given
# Assay: not given
# Details: known, NPL 1; cited from earlier work
row,Compound,Solubility
1,"CC(C)N(CCCCOCC(=O)NS(C)(=O)=O)c1cnc(-c2ccccc2)c(-c2ccccc2)n1 [Compound A, 2-{4-[N-(5,6-diphenylpyrazin-2-yl)-N-isopropylamino]butyloxy}-N-(methylsulfonyl)acetamide]",depend on pH
